Data reported in paper PMC6584114, “Metabolism of IMM-H004 and Its Pharmacokinetic-Pharmacodynamic Analysis in Cerebral Ischemia/Reperfusion Injured Rats” (Frontiers in Pharmacology, 2019).

Assays:
[1] = tested on: rat liver microsomes (RLMs); experiment: Kinetics of IMM-H004 demethylation (M1 and M2 formation) in rat liver microsomes; type: in vitro ADME; settings: substrate IMM-H004
Procedure: To compare the metabolic capability of IMM-H004 demethylation in rat and human liver microsomes, the kinetics of M1 and M2 formation in HLMs or RLMs were determined. Enzyme kinetic experiments were performed in triplicate. The incubation mixtures contained HLM/RLM (1 mg protein/ml), IMM-H004 (0.1–1,800 μM), and NADPH (1.2 mM) in a final volume of 0.2 ml Tris-HCl buffer (50 mM, pH 7.4) containing 5 mM MgCl2. The reaction was incubated at 37°C for 20 min and stopped by adding 200 μL of ice-cold acetonitrile containing IS (100 ng/ml). After vortex-mixing and centrifugation, M1 and M2 in the supernatant were analyzed by LC-MS/MS.
(§1) The LC-MS/MS system consisted of Shimadzu 30A UPLC and API 4000 triple quadruple mass spectrometer (AB SCIEX, USA). Data acquisition and analysis were accomplished using Analyst 1.5.2 software. The analytes and IS were chromatographed by injection of 1 μL sample. The mobile phases consisted of solvent A (0.5% formic acid in water) and solvent B (0.5% formic acid in methanol) at a flow rate of 0.3 ml/min on an Eclipse Plus C18 column (2.1 mm × 50 mm, 3.5 μm, Agilent, USA), and the operating temperature was 40°C. The elution condition was 10% solvent B for 0.7 min, ascending to 98% B in 2.3 min, holding for 3.0 min and reequilibrating to 10% B within 0.1 min and maintained for 2.4 min (Jiang JW, 2018). The specific transitions monitored were 305→248 for IMM-H004, 291→234 for M1, 291→248 for M2, 481→305 for IMM-H004G, 385→305 for M4, and 260→183 for IS.

[2] = tested on: rat liver microsomes (RLMs), UGT; experiment: Kinetics of IMM-H004G formation (glucuronidation) in UDPGA-supplemented rat liver microsomes; type: in vitro ADME; settings: substrate IMM-H004
Procedure: (§2) To explore glucuronidation difference of IMM-H004 between humans and rats, the kinetics of IMM-H004G formation in UDPGA-supplemented HLMs and RLMs were determined. The incubation mixtures consisted of HLMs or RLMs (0.025 mg protein/ml), alamethicin (50 μg/mg protein), IMM-H004 (0.5–2,500 μM), and UDPGA (5 mM) in a final volume of 0.2 ml Tris-HCl buffer (50 mM, pH 7.4) containing 5 mM MgCl2. HLM or RLM was preincubated with alamethicin on ice for 15 min. The reaction was incubated at 37°C for 10 min and quenched by adding 200 μL of ice-cold acetonitrile containing IS (100 ng/ml). After vortex-mixing and centrifugation, IMM-H004G in the supernatant was analyzed by LC-MS/MS.
as §1, with “The elution condition was 10% solvent B for 0.7 min, ascending to 98% B in 2.3 min, holding for 3.0 min and reequilibrating to 10% B within 0.1 min and maintained for 2.4 min (Jiang JW, 2018).” left out

[3] = tested on: human liver microsomes (HLMs), UGT; experiment: Kinetics of IMM-H004G formation (glucuronidation) in UDPGA-supplemented human liver microsomes; type: in vitro ADME; settings: substrate IMM-H004
Procedure: as §2
as §1, with “The elution condition was 10% solvent B for 0.7 min, ascending to 98% B in 2.3 min, holding for 3.0 min and reequilibrating to 10% B within 0.1 min and maintained for 2.4 min (Jiang JW, 2018).” left out

[4] = tested on: PC12 cells; experiment: Neuroprotection in oxygen-glucose deprivation injured PC12 cells (MTT cell viability); type: cell-based; settings: 1 and 10 μM, 24 h, MTT, vs model group
Procedure: The neuroprotective activity of IMM-H004 and IMM-H004G was evaluated on PC12 cells damaged by oxygen-glucose deprivation (OGD). PC12 cells were purchased from the American Type Culture Collection. Cultures were maintained at 37°C in 5% CO2 in a humidified incubator. For cell viability assay, PC12 cells were incubated in 96-well plates at a density of 5 × 10^4/ml for 24 h. In the sham group, PC12 cells were cultured in Dulbecco’s modified eagle medium supplemented with 5% fetal bovine serum and 5% equine serum (Gibco, USA). In the OGD group, PC12 cells were cultured in glucose-free Earle’s balanced salt solution supplemented with 15 mM Na2S2O4 for 2 h and then incubated with compounds of nerve growth factor (NGF, 10 μM), edaravone (10 μM, 50 μM), IMM-H004 (1 μM, 10 μM), and IMM-H004G (1 μM, 10 μM), respectively. After 24 h of incubation, MTT (5 mg/ml) was added into the cell cultures and incubated for an additional 4 h. Then the supernatant was removed and 100 μL DMSO was added. Absorbance was measured using an Ultramark microplate reader at a wavelength of 562 nm. The cell viability was expressed as a percentage of the absorbance density value of control cultures.

[5] = tested on: MCAO/R rats; experiment: Neuroprotection in transient MCAO/R rats (infarct volume, neurological score); type: in vivo, rat; settings: 10 mg/kg iv after reperfusion, 24 h, vs model
Excerpt: Transient MCAO/R was applied to compare the neuroprotection of IMM-H004 and IMM-H004G. Rats were fasted overnight with free access to water and randomly assigned to different groups. Rats were anesthetized with a mixture of 5% isoflurane and 95% oxygen and maintained with a mixture of 3% isoflurane and 97% oxygen during the surgical procedure. A 4-0 nylon thread, the tip of which was burned (diameter 0.36 mm), was inserted into the right internal carotid artery and advanced until the origin of the right MCA was occluded. After 60 min of the occlusion, the thread was withdrawn to allow reperfusion, and then the rats were returned to the chamber. Saline or edaravone at dose of 6 mg/kg or IMM-H004 citrate and IMM-H004G at dose of 10 mg/kg (dissolved in saline to yield a concentration of 2 mg/ml) were administered by intravenous injection immediately after reperfusion.
The rats were assessed for neurologic deficits at 24 h after reperfusion according to Zea Longa’s five-point scale. […] The animals without symptoms of neurological impairment or dying after the surgery were rejected. All animals were killed 24 h after reperfusion. Brains of the animals were removed and cut into 2 mm-thick slices, for a total of six slices per animal. The slices were immersed in a 2% solution of 2,3,5-triphenyltetrazolium chloride in phosphate buffered saline at 37°C for 20 min and then fixed in 4% formaldehyde overnight. Images of the slices were obtained with a scanner and a computer. The infarct area and the total area were calculated by tracing the areas on the computer screen with Image J. The percentage of the infarct volume was expressed as the infarct volumes (white parts)/the whole volume of the cortex.

COc1cc(O)cc2oc(=O)c(N3CCN(C)CC3)c(C)c12 [IMM-H004, 7-hydroxy-5-methoxy-4-methyl-3-(4-methylpiperazin-1-yl)-coumarin]
K m of M1 formation (6-demethylation) [1]: 1,244.0 μM
K m of M2 formation (N-demethylation) [1]: 111.9 µM
V max of M1 formation (6-demethylation) [1]: 1.34 nmol/min/mg protein
V max of M2 formation (N-demethylation) [1]: 0.12 nmol/min/mg protein
K m of IMM-H004G formation (glucuronidation) [2]: 9.5 µM
V max of IMM-H004G formation (glucuronidation) [2]: 5.04 nmol/min/mg protein
K m of IMM-H004G formation (glucuronidation) [3]: 119.3 µM
V max of IMM-H004G formation (glucuronidation) [3]: 3.25 nmol/min/mg protein
cell viability of OGD-injured PC12 cells [4]: significant (p < 0.05) preservation of viability
infarct volume [5]: markedly reduced (p < 0.01)
neurological test score [5]: significant improvement (p < 0.01)
